Test results: ChEMBL document CHEMBL1150529, “Synthesis and pharmacological activity of SC-53228, a leukotriene B4 receptor antagonist with high intrinsic potency and selectivity” (Bioorg Med Chem Lett, 1994)
pIC50: −log10 of the molar value. Calls of active or inactive are those of the source. The calls are words filed in the database; no cut-off is given here.

What was measured:
[1] = species: Cavia porcellus; test: Oral effective dose for guinea pig LTB4 induced intradermal chemotaxis; format: functional
[2] = biological target: Leukotriene B4 receptor 1 (Homo sapiens, UniProt Q15722); test: Inhibitory activity against leukotriene B4 receptor
Leukotriene B4 receptor 1, sequence (Q15722 whole entry): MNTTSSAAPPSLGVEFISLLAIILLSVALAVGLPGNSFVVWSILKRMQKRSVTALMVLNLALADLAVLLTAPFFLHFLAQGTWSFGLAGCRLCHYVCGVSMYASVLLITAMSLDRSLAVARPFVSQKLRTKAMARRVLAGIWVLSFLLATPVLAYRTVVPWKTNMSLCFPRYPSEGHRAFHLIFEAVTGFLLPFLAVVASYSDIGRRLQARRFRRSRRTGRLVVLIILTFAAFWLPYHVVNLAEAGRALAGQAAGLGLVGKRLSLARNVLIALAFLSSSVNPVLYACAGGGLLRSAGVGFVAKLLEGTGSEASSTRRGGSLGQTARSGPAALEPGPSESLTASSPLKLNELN

[3] = tested on: Mus musculus; test: Topical effective dose for TPA induced ear inflammation in the mouse; format: functional
[4] = species: Mus musculus; test: Oral effective dose for TPA induced ear inflammation in the mouse; format: functional
[5] = tested on: Rattus norvegicus; test: Tested for increase in fatty acyl Co-A activity in rats dosed for 7 days at a dose of 200 mg/kg/day; NS means no significant activity; format: functional, organism-based
[6] = species: Homo sapiens; test: Compound was tested for inhibitory activity against leukotriene B4 induced neutrophil chemotaxis; format: functional

Molecule `CCCc1c(OCCCOc2ccc(C(=O)NC)c(OC)c2CC2CC2)ccc2c1O[C@H](CCC(=O)O)CC2` has an ED50 [1] of 0.07 mg/kg, a pIC50 [2] of 7.84 and an ED50 [3] of 200 µg. For the same molecule, the ED50 [4] was less than 2.5 mg/kg, the Activity [5] was “inactive” and the pIC50 [6] was 7.61.

For `CCCc1c(OCCCOc2ccc(C(=O)N3CCCC3)c(OC)c2CCC)ccc2c1OC(C(=O)O)CC2` (centres undefined), the pIC50 [2] was greater than 10.00 and the pIC50 [6] was greater than 9.80.

For `CCCc1c(OCCCOc2ccc(C(=O)NC)c(OC)c2CC2CC2)ccc2c1OC(C(=O)O)CC2` (centres undefined), the pIC50 [2] was 8.28 and the pIC50 [6] was 7.89.

`CCCc1c(OCCCOc2ccc(C(=O)NC)c(OC)c2CC2CC2)ccc2c1OC(CCC(=O)O)CC2` (centres undefined) gave a pIC50 [2] of 7.96 and a pIC50 [6] of 7.66.

`CCCc1c(OCCCOc2ccc(C(C)=O)c(OC)c2CCC)ccc2c1OC(C(=O)O)CC2` (centres undefined) [SC-41390] was tested, and the ED50 [1] was 1.7 mg/kg, the ED50 [3] was 1400 µg and the ED50 [4] was 18 mg/kg. For the same molecule, the pIC50 [6] was 9.00.

`CCCCC/C=C\C[C@@H](O)/C=C/C=C/C=C\[C@@H](O)CCCC(=O)O` [LEUKOTRIENE_B4] showed a pIC50 [6] of 8.75.

`CCCc1c(OCCCOc2ccc(C(=O)N(C)C)c(OC)c2CCC)ccc2c1OC(C(=O)O)CC2` (centres undefined) was tested, and the pIC50 [2] was 9.82 and the pIC50 [6] was greater than 9.85.

For `CCCc1c(OCCCOc2ccc(C(=O)NC(C)C)c(OC)c2CCC)ccc2c1OC(C(=O)O)CC2` (centres undefined), the pIC50 [2] was 10.00 and the pIC50 [6] was 9.96.

`CCCc1c(OCCCOc2ccc(C(N)=O)c(OC)c2CCC)ccc2c1OC(C(=O)O)CC2` (centres undefined) was tested, and the pIC50 [2] was 8.62 and the pIC50 [6] was 8.57.

Work on `CCCc1c(OCCCOc2ccc(C(=O)NC)c(OC)c2CC2CC2)ccc2c1O[C@@H](CCC(=O)O)CC2` yielded an ED50 [1] of 0.2 mg/kg, a pIC50 [2] of 8.07 and an ED50 [3] of 1200 µg. For the same molecule, the pIC50 [6] was 7.97.

`CCCc1c(OCCCOc2ccc(C(=O)NC)c(OC)c2CCC)ccc2c1OC(C(=O)O)CC2` (centres undefined) was tested, and the pIC50 [2] was 9.07 and the pIC50 [6] was 8.89.
